# Laboratory results taken from patent US12582621B2, “Compositions and methods for delivering pharmaceutical agents” (Arizona Board of Regents on Behalf of the University of …, priority 2020, dated 2026).
# Test system: radiation-induced oral mucosistis
# Test: Fractionated radiation-induced oral mucositis in mice, topical suramin
# Format: in vivo, C57BL/6J mice
# Settings: 8 Gy on 5 consecutive days, topical suramin 50 mg/ml solution by intraoral swab twice daily, assessed day 7
# Protocol: The head and neck region of six-week-old male and female C57BL/6J mice (4-5 mice/group/sex) were exposed to collimated fractionated radiation (8 Gy on 5 consecutive days). Topically applied suramin (50 mg/ml solution) was applied on day 1 of radiation by intraoral swab and twice daily throughout the experimental period. On day 7, all mice were euthanized and tongues were assessed for development and extent of oral mucositis ulceration on the dorsal surface of the tongue using 1% toluidine blue. Epithelial erosion and ulceration were visible as a deep blue color and ulceration area was measured using NIH Image J software. Histopathological grading (0-4 scale) using an established scale was used to assess OM staging and epithelial thinning.
compound,measurement,value
"Cc1ccc(C(=O)Nc2ccc(S(=O)(=O)O)c3cc(S(=O)(=O)O)cc(S(=O)(=O)O)c23)cc1NC(=O)c1cccc(NC(=O)Nc2cccc(C(=O)Nc3cc(C(=O)Nc4ccc(S(=O)(=O)O)c5cc(S(=O)(=O)O)cc(S(=O)(=O)O)c45)ccc3C)c2)c1 [suramin, Suramin]",effect on radiation-induced oral mucositis,diminishes radiation-induced oral mucosistis
